Assay results taken from publication PMC7377239, “Cardiovascular Effects of Polychlorinated Biphenyls and Their Major Metabolites” (Environmental Health Perspectives, 2020).
Like-named read-outs stand apart in the source and are kept apart here.

System: HUVECs
Assay: Tube formation (tubulogenesis) assay in HUVECs, 18 h
Format: cell-based, human
Settings: Homo sapiens, HUVEC, 18 h, HUVEC
In short: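 HUVECs (passage 1–5) seeded on reduced-growth-factor basement membrane and exposed to compounds overnight at 37°C, 5% CO2, in 2× maintenance medium with 12.5 ng/mL VEGF; 0.5% DMSO vehicle. Calcein AM-stained tube networks imaged and analysed; vehicle-normalized readouts fit to four-parameter logistic, POD set at one SD of vehicle means.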

[1] = tube formation mtl, read-out: POD huvec.mtl.18hr
[2] = tube formation tlps, read-out: POD huvec.tlps.18hr
[3] = tube formation tta, read-out: POD huvec.tta.18hr
[4] = tube formation ttl, read-out: POD huvec.ttl.18hr

Row | SMILES | minimal effective concentration [1] | minimal effective concentration [2] | minimal effective concentration [3] | minimal effective concentration [4]
1 | Clc1ccc(-c2ccccc2)cc1 [PCB 3, 4-chlorobiphenyl] | 25.3 µM | 100 µM | 0.67 µM | 0.7 µM
2 | Clc1cccc(-c2cccc(Cl)c2)c1 [PCB 11, 3,3′-Dichlorobiphenyl] | 100 µM | 41.8 µM | 100 µM | 100 µM
3 | Clc1ccc(Cl)c(-c2cc(Cl)ccc2Cl)c1 [PCB 52, 2,2′,5,5′-tetrachlorobiphenyl] | 100 µM | 100 µM | 100 µM | 100 µM
4 | Clc1ccc(Cl)c(-c2c(Cl)ccc(Cl)c2Cl)c1 [PCB 95, 2,2′,3,5′,6-pentachlorobiphenyl] | 8.29 µM | 100 µM | 100 µM | 100 µM
5 | Clc1ccc(-c2cc(Cl)c(Cl)c(Cl)c2)cc1Cl [PCB 126, 3,3′,4,4′,5-pentachlorobiphenyl] | 100 µM | 100 µM | 100 µM | 100 µM
6 | Clc1cc(Cl)c(-c2cc(Cl)c(Cl)cc2Cl)cc1Cl [PCB 153, 2,2′,4,4′,5,5′-hexachlorobiphenyl] | 19.8 µM | 61.8 µM | 8.87 µM | 0.13 µM
